Measured values from ChEMBL document CHEMBL5046300, “Potent Bactericidal Antimycobacterials Targeting the Chaperone ClpC1 Based on the Depsipeptide Natural Products Ecumicin and Ohmyungsamycin A” (2022).
In brackets after ≈: the same amount, converted by molar mass. Activity calls are given as the source filed them. The rule behind the calls is not given here. *1 amine or outer side, *2 acyl side, *3 side chain or, on linkers, in order; H or OH if unused. Where a SMILES comes first, the peptide text is derived from it. Bridges are numbered along the chain shown (N, C = ends). [ ]: non-standard residue; d: D form. The star is where a group is joined. Phe(3R-OH) = O=C([C@@H](N[*:1])[C@H](O[*:3])c1ccccc1)[*:2]; NMeTrp(4-OMe) = CN[C@@H](Cc1c[nH]c2cccc(OC)c12)C(=O)O; NMeW = CN[C@@H](Cc1c[nH]c2ccccc12)C(=O)O; NMeaIle = CC[C@@H](C)[C@H](NC)C(=O)O; NMe2Val = CC(C)[C@@H](C(=O)*)N(C)C; NMeF = CN[C@@H](Cc1ccccc1)C(=O)O; NMeT = CN[C@H](C(=O)O)[C@@H](C)O; NMeL = CN[C@@H](CC(C)C)C(=O)O; NMeV = CN[C@H](C(=O)O)C(C)C; NMeA = CN[C@@H](C)C(=O)O

Legend:
[1] = system: Mycobacterium tuberculosis; assay: Antibacterial activity against Mycobacterium tuberculosis mc2 6230 assessed as reduction in viable cells at 10 times MIC measured for 42 days in solid media by time kill assay; type: functional
Escherichia coli = assay: Antibacterial activity against Escherichia coli K-12 MG1655 assessed as bacterial growth inhibition incubated for 18 to 20 hrs by broth microdilution method; type: functional; conditions: time 18-20 hrs
[2] = system: Mycobacterium tuberculosis; assay: Synergistic antimycobacterial activity against Mycobacterium tuberculosis mc2 6230 assessed as fractional inhibitory concentration incubated for 7 days in presence of ethambutol by checkerboard assay; type: functional; conditions: time 7 day
Vibrio cholerae = assay: Antibacterial activity against Vibrio cholerae A1552 El Tor assessed as bacterial growth inhibition incubated for 18 to 20 hrs by broth microdilution method; type: functional; conditions: time 18-20 hrs
[3] = system: Staphylococcus epidermidis; assay: Antibacterial activity against Staphylococcus epidermidis ATCC 14990 assessed as bacterial growth inhibition incubated for 18 to 20 hrs by broth microdilution method; type: functional; conditions: time 18-20 hrs
Mycobacterium marinum [4] = assay: Antimycobacterial activity against Mycobacterium marinum infected in zebrafish assessed as reduction in bacterial burden at 10 uM after 6 days post infection; type: functional; parameters: scale not given: the % may be the effect or the level left; conditions: time 6 day
Brucella anthropi = assay: Antibacterial activity against Ochrobactrum anthropi ATCC 49687 assessed as bacterial growth inhibition incubated for 18 to 20 hrs by broth microdilution method; type: functional; conditions: time 18-20 hrs
Staphylococcus aureus [5] = assay: Antibacterial activity against methicillin-resistant Staphylococcus aureus BAA-44 assessed as bacterial growth inhibition incubated for 18 to 20 hrs by broth microdilution method; type: functional; conditions: time 18-20 hrs
Bacillus subtilis = assay: Antibacterial activity against Bacillus subtilis ATCC 6051 assessed as bacterial growth inhibition incubated for 18 to 20 hrs by broth microdilution method; type: functional; conditions: time 18-20 hrs
[6] = system: Mycolicibacterium smegmatis; assay: Enhancement of Mycobacterium smegmatis ClpC1 ATPase activity assessed as inhibition of ClpC1/ClpP1P2 complex-mediated beta-casein proteolysis incubated for 30 to 60 mins by in vitro degradation assay; conditions: filed as activator, time 30-60 min
Mycobacterium marinum [7] = assay: Antimycobacterial activity against mid-exponential phase Mycobacterium marinum M strain incubated for 2 days by fluorescence assay; type: functional; conditions: 48 h, time 2 day
Salmonella enterica = assay: Antibacterial activity against Salmonella enterica ATCC 13311 assessed as bacterial growth inhibition incubated for 18 to 20 hrs by broth microdilution method; type: functional; conditions: time 18-20 hrs
Mycobacterium marinum [8] = assay: Antimycobacterial activity against tdTomato fluorescent Mycobacterium marinum infected in zebrafish assessed as reduction in bacterial burden at 25 uM pre-infected with bacteria for 4 to 5 days followed by compound addition and measured after day 6 post infection by microscopic analysis relative to control; type: functional; parameters: scale not given: the % may be the effect or the level left; conditions: time 4-5 day
[9] = system: Mycobacterium tuberculosis; assay: Synergistic antimycobacterial activity against Mycobacterium tuberculosis mc2 6230 assessed as fractional inhibitory concentration incubated for 7 days in presence of pyrazinamide by checkerboard assay; type: functional; conditions: time 7 day
[10] = system: Mycobacterium tuberculosis; assay: Synergistic antimycobacterial activity against Mycobacterium tuberculosis mc2 6230 assessed as fractional inhibitory concentration incubated for 7 days in presence of bedaquiline by checkerboard assay; type: functional; conditions: time 7 day
[11] = system: Mycobacterium tuberculosis; assay: Synergistic antimycobacterial activity against Mycobacterium tuberculosis mc2 6230 assessed as fractional inhibitory concentration incubated for 7 days in presence of isoniazid by checkerboard assay; type: functional; conditions: time 7 day
Streptococcus pneumoniae = assay: Antibacterial activity against Streptococcus pneumoniae ATCC 49619 assessed as bacterial growth inhibition incubated for 18 to 20 hrs by broth microdilution method; type: functional; conditions: time 18-20 hrs
[12] = system: Mycobacterium tuberculosis; assay: Synergistic antimycobacterial activity against Mycobacterium tuberculosis mc2 6230 assessed as fractional inhibitory concentration incubated for 7 days in presence of clofazimine by checkerboard assay; type: functional; conditions: time 7 day
Listeria ivanovii = assay: Antibacterial activity against Listeria ivanovii BAA-139 assessed as bacterial growth inhibition incubated for 18 to 20 hrs by broth microdilution method; type: functional; conditions: time 18-20 hrs
[13] = system: Yersinia pseudotuberculosis; assay: Antibacterial activity against Yersinia pseudotuberculosis ATCC 6904 assessed as bacterial growth inhibition incubated for 18 to 20 hrs by broth microdilution method; type: functional; conditions: time 18-20 hrs
Klebsiella aerogenes = assay: Antibacterial activity against Klebsiella aerogenes ATCC 35029 assessed as bacterial growth inhibition incubated for 18 to 20 hrs by broth microdilution method; type: functional; conditions: time 18-20 hrs
Mycobacterium marinum [14] = assay: Antimycobacterial activity against Mycobacterium marinum infected in zebrafish assessed as reduction in bacterial burden at 10 uM in presence of rifampicin after 6 days post infection; type: functional; parameters: scale not given: the % may be the effect or the level left; conditions: time 6 day
Klebsiella pneumoniae = assay: Antibacterial activity against Klebsiella pneumoniae ATCC 700603 assessed as bacterial growth inhibition incubated for 18 to 20 hrs by broth microdilution method; type: functional; conditions: time 18-20 hrs
Enterococcus faecium = assay: Antibacterial activity against Enterococcus faecium ATCC 6569 assessed as bacterial growth inhibition incubated for 18 to 20 hrs by broth microdilution method; type: functional; conditions: time 18-20 hrs
Pseudomonas aeruginosa = assay: Antibacterial activity against Pseudomonas aeruginosa ATCC 27853 assessed as bacterial growth inhibition incubated for 18 to 20 hrs by broth microdilution method; type: functional; conditions: time 18-20 hrs
[15] = system: Providencia alcalifaciens; assay: Antibacterial activity against Providencia alcalifaciens ATCC 9886 assessed as bacterial growth inhibition incubated for 18 to 20 hrs by broth microdilution method; type: functional; conditions: time 18-20 hrs
[16] = system: Mycolicibacterium smegmatis; assay: Enhancement of hexameric Mycobacterium smegmatis ClpC1 ATPase activity assessed as fold increase at 100 uM incubated for 30 mins by ATP/NADH spectrophotometric analysis; conditions: filed as activator
[17] = system: Mycobacterium tuberculosis; assay: Synergistic antimycobacterial activity against Mycobacterium tuberculosis mc2 6230 assessed as fractional inhibitory concentration incubated for 7 days in presence of rifampicin by checkerboard assay; type: functional; conditions: time 7 day
[18] = system: Mycobacterium tuberculosis; assay: Antimycobacterial activity against Mycobacterium tuberculosis mc2 6230 measured after 7 days; type: functional; conditions: mc2 6230, 168 h, time 7 day
[19] = system: Mycobacterium tuberculosis; assay: Bactericidal activity against Mycobacterium tuberculosis mc2 6230 at 10 time MIC monitored for 28 days under hypoxic non-replicating culture condition by time kill assay; type: functional, organism-based; conditions: time 28.0 day
Staphylococcus aureus [20] = assay: Antibacterial activity against methicillin-sensitive Staphylococcus aureus ATCC 29213 assessed as bacterial growth inhibition incubated for 18 to 20 hrs by broth microdilution method; type: functional; conditions: time 18-20 hrs
Acinetobacter baumannii = assay: Antibacterial activity against Acinetobacter baumannii ATCC 19606 assessed as bacterial growth inhibition incubated for 18 to 20 hrs by broth microdilution method; type: functional; conditions: time 18-20 hrs
[21] = system: Mycobacterium tuberculosis; assay: Antimycobacterial activity against Mycobacterium tuberculosis mc2 6230 measured after 7 days by Time kill assay; type: functional, organism-based; conditions: time 7.0 day
Enterococcus faecalis = assay: Antibacterial activity against Enterococcus faecalis ATCC 29212 assessed as bacterial growth inhibition incubated for 18 to 20 hrs by broth microdilution method; type: functional; conditions: time 18-20 hrs
Shigella sonnei = assay: Antibacterial activity against Shigella sonnei ATCC 25931 assessed as bacterial growth inhibition incubated for 18 to 20 hrs by broth microdilution method; type: functional; conditions: time 18-20 hrs
[22] = system: Mycobacterium tuberculosis; assay: Antimycobacterial activity against Mycobacterium tuberculosis H37Rv infected in human THP-1 cells assessed as log reduction in bacterial growth at 10 uM incubated for 3 to 4 weeks by intracellular killing assay; type: functional; conditions: time 3-4 weeks

SMILES	MIC (Escherichia coli) [µM]	MIC (Vibrio cholerae) [µM]	MIC [3] [µM]	Activity (Mycobacterium marinum [4]) [%]	MIC (Brucella anthropi) [µM]	MIC (Staphylococcus aureus [5]) [µM]	MIC (Bacillus subtilis) [µM]	MIC (Salmonella enterica) [µM]	MIC (Streptococcus pneumoniae) [µM]	MIC (Listeria ivanovii) [µM]	MIC [13] [µM]	MIC (Klebsiella aerogenes) [µM]	MIC (Klebsiella pneumoniae) [µM]	MIC (Enterococcus faecium) [µM]	MIC (Pseudomonas aeruginosa) [µM]	MIC [15] [µM]	MIC [18] [µM]	MIC (Staphylococcus aureus [20]) [µM]	MIC (Acinetobacter baumannii) [µM]	MIC (Enterococcus faecalis) [µM]	also measured
NNC(=O)c1ccncc1	–	–	–	–	–	–	–	–	–	–	–	–	–	–	–	–	–	–	–	–	Activity ([1]; time 42.0 day): inactive
CN[C@H](C(=O)N[C@H](C(=O)N[C@@H]1C(=O)N(C)[C@@H]([C@@H](C)O)C(=O)N[C@@H](C(C)C)C(=O)N(C)[C@@H](CC(C)C)C(=O)N[C@@H](C(C)C)C(=O)N(C)[C@@H](C)C(=O)N(C)[C@@H](Cc2c[nH]c3ccccc23)C(=O)N[C@@H](C(C)C)C(=O)N[C@@H](Cc2ccccc2)C(=O)N[C@@H](C(C)C)C(=O)O[C@@H]1C)C(C)C)C(C)C (H-[NMeV]VT[NMeT]V[NMeL]V[NMeA][NMeW]VFV; ester 3-C)	> 128	> 128	> 128	50	> 128	> 128	128 (≈ 177 µg/mL)	> 128	> 128	> 128	> 128	128 (≈ 177 µg/mL)	> 128	> 128	> 128	> 128	0.5 (≈ 0.692 µg/mL)	> 128	> 128	> 128	Activity ([1]; time 42 day): 6 log10CFU/ml; FIC [2]: 0.75; Activity [6]: Active; MIC50 (Mycobacterium marinum [7]): 1.44 µM (≈ 1.99 µg/mL); Activity (Mycobacterium marinum [8]): 76%; FIC [9]: 2; FIC [10]: 3; FIC [11]: 2; FIC [12]: 2; Activity (Mycobacterium marinum [14]): 83%; fold change (FC) [16]: 3; FIC [17]: 0.375; Activity [19]: Active; Activity [21]: Active; MIC (Shigella sonnei): > 128 µM
CN[C@H](C(=O)N[C@H](C(=O)N[C@@H]1C(=O)N(C)[C@@H]([C@@H](C)O)C(=O)N[C@@H](C(C)C)C(=O)N(C)[C@@H](CC(C)C)C(=O)N[C@@H](C(C)C)C(=O)N(C)[C@@H](Cc2ccccc2)C(=O)N(C)[C@@H](Cc2c[nH]c3ccccc23)C(=O)N[C@@H](C(C)C)C(=O)N[C@@H](Cc2ccccc2)C(=O)N[C@@H](C(C)C)C(=O)O[C@@H]1C)C(C)C)C(C)C (H-[NMeV]VT[NMeT]V[NMeL]V[NMeF][NMeW]VFV; ester 3-C)	–	–	–	–	–	–	–	–	–	–	–	–	–	–	–	–	0.125 (≈ 0.183 µg/mL)	–	–	–	inhibition [6]: Active
CC[C@@H](C)[C@@H](C(=O)N[C@@H]1C(=O)N(C)[C@@H]([C@@H](C)O)C(=O)N[C@@H](C(C)C)C(=O)N(C)[C@@H](CC(C)C)C(=O)N[C@@H](C(C)C)C(=O)N(C)[C@@H](C(C)C)C(=O)N(C)[C@@H](Cc2c[nH]c3cccc(OC)c23)C(=O)N[C@@H](C(C)C)C(=O)N[C@@H]([C@H](O)c2ccccc2)C(=O)N[C@@H](C(C)C)C(=O)O[C@@H]1C)N(C)C(=O)[C@@H](NC(=O)[C@H](C(C)C)N(C)C)C(C)C (NMe2Val-V[NMeaIle]T[NMeT]V[NMeL]V[NMeV][NMeTrp(4-OMe)]V[Phe(3R-OH)]V; ester 3-C)	–	–	–	–	–	–	–	–	–	–	–	–	–	–	–	–	1 (≈ 1.6 µg/mL)	–	–	–	Activity [22]: 1 log10CFU/ml
CO[C@H]1/C=C/O[C@@]2(C)Oc3c(C)c(O)c4c(O)c(c(/C=N/N5CCN(C)CC5)c(O)c4c3C2=O)NC(=O)/C(C)=C\C=C\[C@H](C)[C@H](O)[C@@H](C)[C@@H](O)[C@@H](C)[C@H](OC(C)=O)[C@@H]1C [RIFAMPIN]	4 (≈ 3.29 µg/mL)	128 (≈ 105 µg/mL)	0.02 (≈ 0.0165 µg/mL)	27	4 (≈ 3.29 µg/mL)	0.01 (≈ 0.00823 µg/mL)	4 (≈ 3.29 µg/mL)	2 (≈ 1.65 µg/mL)	0.11 (≈ 0.0905 µg/mL)	0.19 (≈ 0.156 µg/mL)	11 (≈ 9.05 µg/mL)	8 (≈ 6.58 µg/mL)	16 (≈ 13.2 µg/mL)	21 (≈ 17.3 µg/mL)	53 (≈ 43.6 µg/mL)	8 (≈ 6.58 µg/mL)	–	0.02 (≈ 0.0165 µg/mL)	1 (≈ 0.823 µg/mL)	1 (≈ 0.823 µg/mL)	Activity [22]: 1 log10CFU/ml; MIC (Shigella sonnei): 1.7 µM (≈ 1.4 µg/mL)
